Where two headings read alike, the source gives them in different places. Values belong to the compound of their own block, whether it stands above or below them.
Legend:
[1] = molecular target: T1, c-Met (cytoplasmic domain) (Homo sapiens, UniProt P08581); assay: c-Met Kinase Assay (same methods as for ALK, with modifications); type: biochemical
T1 construct: 10 ng/mL c-Met (cytoplasmic domain, Invitrogen Corporation #PV3143); purchased Invitrogen Corporation PV3143
Method in brief: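 Europium-labeled PT66 antibody (Eu-N1) detects substrate phosphorylation on wells coated with phospholipase C-γ at 10 μg/mL. The kinase, the cytoplasmic domain of c-Met at 10 ng/mL, starts the reaction, which proceeds 15 minutes at 37° C.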

[2] = molecular target: T2, baculovirus-expressed ALK (Homo sapiens, UniProt Q9UM73); assay: ALK Kinase Assay (ELISA-type, time-resolved fluorescence); type: biochemical
T2 construct: host or cells: baculovirus expression system
Method in brief: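 Plates coated with phospholipase C-γ substrate (10 μg/mL in TBS); reaction started with 30 ng/ml ALK and run 15 min at 37° C. Phosphorylated substrate detected with Eu-N1-labeled PT66 antibody. IC50 from sigmoidal variable-slope fit of percent inhibition vs log concentration.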

[3] = c-Met kinase inhibition, 1 μM ATP, read-out: cMet Activity
[4] = ALK kinase inhibition, 1 μM ATP, read-out: ALK Activity
[5] = c-Met kinase inhibition, 1 μM ATP (Km level), read-out: cMet Activity
[6] = ALK kinase inhibition, 1 μM ATP (Km level), read-out: ALK Activity
[7] = 1 μM ATP (Km level), 10 ng/mL c-Met, read-out: cMet Activity (c-Met kinase inhibition, IC50 class)
[8] = 1 μM ATP (Km level), 30 ng/ml ALK, 37° C., 15 minutes, read-out: ALK Activity (ALK kinase inhibition, IC50 class)
[9] = 1 μM ATP (Km level), read-out: cMet Activity (c-Met Kinase Inhibition, IC50)
[10] = 1 μM ATP (Km level), read-out: ALK Activity (ALK Kinase Inhibition, IC50)

T1 sequence (P08581 956-1390 limits assumed): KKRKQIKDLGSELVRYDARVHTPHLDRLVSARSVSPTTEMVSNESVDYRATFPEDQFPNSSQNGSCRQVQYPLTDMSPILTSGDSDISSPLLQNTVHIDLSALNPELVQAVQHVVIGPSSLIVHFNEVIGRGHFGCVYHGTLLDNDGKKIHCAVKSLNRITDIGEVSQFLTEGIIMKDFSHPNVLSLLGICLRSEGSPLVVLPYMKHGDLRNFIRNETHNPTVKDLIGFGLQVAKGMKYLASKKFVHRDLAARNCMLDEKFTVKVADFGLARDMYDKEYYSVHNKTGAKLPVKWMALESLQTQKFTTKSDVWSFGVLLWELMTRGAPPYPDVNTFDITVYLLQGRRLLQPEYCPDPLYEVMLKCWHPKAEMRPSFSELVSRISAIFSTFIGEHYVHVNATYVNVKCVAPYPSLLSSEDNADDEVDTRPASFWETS
T2 sequence (Q9UM73 19-1620): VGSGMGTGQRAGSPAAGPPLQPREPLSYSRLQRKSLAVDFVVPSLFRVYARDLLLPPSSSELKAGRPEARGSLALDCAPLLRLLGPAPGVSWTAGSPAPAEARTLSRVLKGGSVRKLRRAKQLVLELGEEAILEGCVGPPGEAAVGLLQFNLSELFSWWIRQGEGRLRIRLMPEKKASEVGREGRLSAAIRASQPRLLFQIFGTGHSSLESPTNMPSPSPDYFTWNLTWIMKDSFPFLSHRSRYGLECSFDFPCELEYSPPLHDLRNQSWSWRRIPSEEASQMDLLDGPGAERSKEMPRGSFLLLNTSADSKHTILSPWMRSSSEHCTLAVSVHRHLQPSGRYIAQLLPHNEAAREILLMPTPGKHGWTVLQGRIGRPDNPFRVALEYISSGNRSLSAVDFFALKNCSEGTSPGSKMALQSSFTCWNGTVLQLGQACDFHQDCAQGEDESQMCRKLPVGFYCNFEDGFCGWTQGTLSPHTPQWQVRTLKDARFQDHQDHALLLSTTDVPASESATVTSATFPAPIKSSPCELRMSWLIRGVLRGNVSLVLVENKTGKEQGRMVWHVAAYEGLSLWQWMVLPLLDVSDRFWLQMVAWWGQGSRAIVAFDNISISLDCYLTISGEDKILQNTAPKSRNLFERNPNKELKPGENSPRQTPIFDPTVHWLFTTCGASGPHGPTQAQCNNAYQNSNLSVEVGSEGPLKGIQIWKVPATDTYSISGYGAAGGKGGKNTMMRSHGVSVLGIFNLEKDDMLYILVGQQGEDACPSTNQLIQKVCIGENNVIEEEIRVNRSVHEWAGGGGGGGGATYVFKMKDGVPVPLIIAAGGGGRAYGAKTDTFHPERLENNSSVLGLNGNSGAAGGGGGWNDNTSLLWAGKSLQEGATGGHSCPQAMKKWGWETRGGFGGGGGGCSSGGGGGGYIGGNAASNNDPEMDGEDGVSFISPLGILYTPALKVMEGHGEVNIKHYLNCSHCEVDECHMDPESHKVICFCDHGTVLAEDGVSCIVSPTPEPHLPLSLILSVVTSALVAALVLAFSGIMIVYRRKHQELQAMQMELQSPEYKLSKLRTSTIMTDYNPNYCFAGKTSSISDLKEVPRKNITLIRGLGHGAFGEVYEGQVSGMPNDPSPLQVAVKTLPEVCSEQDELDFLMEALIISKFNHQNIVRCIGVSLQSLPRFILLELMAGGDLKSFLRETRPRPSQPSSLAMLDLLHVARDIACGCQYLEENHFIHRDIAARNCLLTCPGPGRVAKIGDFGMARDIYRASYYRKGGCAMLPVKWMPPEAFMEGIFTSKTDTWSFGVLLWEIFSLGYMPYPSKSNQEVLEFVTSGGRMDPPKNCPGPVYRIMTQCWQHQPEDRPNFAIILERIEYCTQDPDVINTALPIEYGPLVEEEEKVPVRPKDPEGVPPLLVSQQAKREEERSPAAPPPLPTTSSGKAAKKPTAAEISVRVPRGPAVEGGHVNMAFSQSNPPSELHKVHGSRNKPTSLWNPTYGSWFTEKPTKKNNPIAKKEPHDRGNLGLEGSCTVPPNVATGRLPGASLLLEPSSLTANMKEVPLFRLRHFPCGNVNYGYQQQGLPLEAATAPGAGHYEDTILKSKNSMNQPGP

SMILES: CCN1CCc2ccc(Nc3ncc(Cl)c(N[C@@H]4CCCC[C@H]4O)n3)cc2CC1 (relative stereo) [Example 319, trans-2-[5-Chloro-2-(3-ethyl-2,3,4,5-tetrahydro-1H-benzo[d]azepin-7-ylamino)-pyrimidin-4-ylamino]-cyclohexanol]
IC50 [1, 5]: > 10000 nM
IC50 [2, 6]: 100 to 1000 nM

SMILES: Clc1cnc(Nc2ccc3c(c2)CCC(N2CCOCC2)CC3)nc1Nc1ccccc1-n1cccn1 (stereo not drawn) [Example 1034, 5-Chloro-N*2*-(7-morpholin-4-yl-6,7,8,9-tetrahydro-5H-benzocyclohepten-2-yl)-N*4*-(2-pyrazol-1-yl-phenyl)-pyrimidine-2,4-diamine]
IC50 [1, 7]: 100 to 1000 nM
IC50 [2, 8]: < 100 nM

SMILES: CCN1CCN(CC)c2cc(Nc3ncc(Cl)c(Nc4ccc5c(c4)CN(CCOC)CCS5)n3)ccc2C1 [Example 733, 5-Chloro-N(2)-(1,4-diethyl-2,3,4,5-tetrahydro-1H-benzo[e][1,4]diazepin-8-yl)-N(4)-[8-(2-methoxy-ethyl)-6,7,8,9-tetrahydro-5-thia-8-aza-benzocyclohepten-2-yl]-pyrimidine-2,4-diamine]
IC50 [1, 9]: 1000 to 10000 nM
IC50 [2, 10]: < 100 nM

SMILES: COc1c(Nc2ncc(Cl)c(Nc3ccccc3S(=O)(=O)N3CCCC3)n2)ccc2c1CCC(N1CCCC(O)C1)CC2 (mixture of isomers) [Example 908, 1-(2-{5-Chloro-4-[2-(pyrrolidine-1-sulfonyl)-phenylamino]-pyrimidin-2-ylamino}-1-methoxy-6,7,8,9-tetrahydro-5H-benzocyclohepten-7-yl)-piperidin-3-ol]
IC50 [1, 9]: 1000 to 10000 nM
IC50 [2, 10]: < 100 nM

SMILES: O=C1CCCc2ccc(Nc3ncc(Cl)c(Nc4c(F)cccc4OCCCOCc4ccccc4)n3)cc2N1 [Example 1283, 8-{4-[2-(3-Benzyloxy-propoxy)-6-fluoro-phenylamino]-5-chloro-pyrimidin-2-ylamino}-1,3,4,5-tetrahydro-1-benzazepin-2-one]
IC50 [1, 7]: > 10000 nM
IC50 [2, 8]: 1000 to 10000 nM

SMILES: COc1ccc(Nc2nc(Nc3ccc4c(c3)CCC(O)CC4)ncc2Cl)c(-n2cccn2)c1 (stereo not drawn) [Example 623, 2-[5-Chloro-4-(4-methoxy-2-pyrazol-1-yl-phenylamino)-pyrimidin-2-ylamino]-6,7,8,9-tetrahydro-5H-benzocyclohepten-7-ol]
IC50 [1, 9]: 1000 to 10000 nM
IC50 [2, 10]: < 100 nM

SMILES: CCN1CCc2ccc(Nc3ncc(Cl)c(Nc4cc(Cl)ccc4C(=O)NC)n3)cc2CC1 [Example 33, 4-Chloro-2-[5-chloro-2-(3-ethyl-2,3,4,5-tetrahydro-1H-benzo[d]azepin-7-ylamino)-pyrimidin-4-ylamino]-N-methyl-benzamide]
IC50 [1, 5]: < 100 nM
IC50 [2, 6]: < 100 nM

SMILES: CNC(=O)c1ccccc1Nc1nc(Nc2ccc3c(c2)CCN(C[C@@H](O)C(F)(F)F)CC3)ncc1Cl [Example 448, 2-{5-Chloro-2-[3-((R)-3,3,3-trifluoro-2-hydroxy-propyl)-2,3,4,5-tetrahydro-1H-benzo[d]azepin-7-ylamino]-pyrimidin-4-ylamino}-N-methyl-benzamide]
IC50 [1, 5]: < 100 nM
IC50 [2, 6]: < 100 nM

SMILES: CCN1CCCOc2cc(Nc3ncc(Cl)c(Nc4c(F)cccc4C(=O)NC)n3)c(F)cc21 [Example 1691, 2-[5-Chloro-2-(9-ethyl-2-fluoro-6,7,8,9-tetrahydro-5-oxa-9-aza-benzocyclohepten-3-ylamino)-pyrimidin-4-ylamino]-3-fluoro-N-methyl-benzamide]
IC50 [1, 3]: < 100 nM
IC50 [2, 4]: < 100 nM

SMILES: COc1cc(N2CCOCC2)ccc1Nc1nc(Nc2ccc3c(c2)CCN(C[C@H](O)C(F)(F)F)CC3)ncc1Cl [Example 330, (S)-3-{7-[5-Chloro-4-(2-methoxy-4-morpholin-4-yl-phenylamino)-pyrimidin-2-ylamino]-1,2,4,5-tetrahydro-benzo[d]azepin-3-yl}-1,1,1-trifluoro-propan-2-ol]
IC50 [1, 5]: > 10000 nM
IC50 [2, 6]: < 100 nM

More lines, now with the values ahead:

IC50 [1, 3]: 100 to 1000 nM
IC50 [2, 4]: 100 to 1000 nM
SMILES: CNC(=O)c1scc(C)c1Nc1nc(Nc2ccc3c(c2)NC(=O)CN(C(C)=O)C3)ncc1Cl [Example 1850, 3-[2-(4-Acetyl-2-oxo-2,3,4,5-tetrahydro-1H-benzo[e][1,4]diazepin-8-ylamino)-5-chloro-pyrimidin-4-ylamino]-4-methyl-thiophene-2-carboxylic acid methylamide]

IC50 [1, 7]: < 100 nM
IC50 [2, 8]: < 100 nM
SMILES: CNC(=O)c1cc(Br)cc(F)c1Nc1nc(Nc2ccc3c(c2)CCN(CCOC)CC3)ncc1Cl [Example 1415, 5-Bromo-2-{5-chloro-2-[3-(2-methoxy-ethyl)-2,3,4,5-tetrahydro-1H-benzo[d]azepin-7-ylamino]-pyrimidin-4-ylamino}-3-fluoro-N-methyl-benzamide]

IC50 [1, 7]: > 10000 nM
IC50 [2, 8]: < 100 nM
SMILES: CNC(=O)c1ccccc1Nc1nc(Nc2cc3c(cc2OC)CCC(NCCO)CC3)ncc1Cl (stereo not drawn) [Example 1092, 2-{5-Chloro-2-[7-(2-hydroxy-ethylamino)-3-methoxy-6,7,8,9-tetrahydro-5H-benzocyclohepten-2-ylamino]-pyrimidin-4-ylamino}-N-methyl-benzamide]

IC50 [1, 5]: 1000 to 10000 nM
IC50 [2, 6]: < 100 nM
SMILES: CCN1CCc2cc(Nc3ncc(Cl)c(Nc4ccccc4C(=O)NC)n3)c(OC)cc2CC1 [Example 48, 2-[5-Chloro-2-(3-ethyl-8-methoxy-2,3,4,5-tetrahydro-1H-benzo[d]azepin-7-ylamino)-pyrimidin-4-ylamino]-N-methyl-benzamide]

IC50 [1, 5]: 100 to 1000 nM
IC50 [2, 6]: < 100 nM
SMILES: CC(=O)N[C@@H]1CCCC[C@H]1Nc1nc(Nc2ccc3c(c2)C(C)(C)CCC(=O)N3)ncc1Cl [Example 395, N-{(1R,2R)-2-[5-Chloro-2-(5,5-dimethyl-2-oxo-2,3,4,5-tetrahydro-1H-benzo[b]azepin-7-ylamino)-pyrimidin-4-ylamino]-cyclohexyl}-acetamide]

IC50 [1, 3]: 1000 to 10000 nM
IC50 [2, 4]: < 100 nM
SMILES: CN(C)[C@@H]1CCN(S(=O)(=O)c2ccccc2Nc2nc(Nc3ccc4c(c3)NC(=O)CCC4(C)C)ncc2Cl)C1 [Example 1625, 8-{5-Chloro-4-[2-((R)-3-dimethylamino-pyrrolidine-1-sulfonyl)-phenylamino]-pyrimidin-2-ylamino}-5,5-dimethyl-1,3,4,5-tetrahydro-benzo[b]azepin-2-one]

IC50 [1, 3]: 1000 to 10000 nM
IC50 [2, 4]: 1000 to 10000 nM
SMILES: CNC(=O)c1cc(F)ccc1Nc1nc(Nc2ccc3c(c2)CN(C)C(=O)CC3)ncc1Cl [Example 1809, 2-[5-Chloro-2-(2-methyl-3-oxo-2,3,4,5-tetrahydro-1H-benzo[c]azepin-8-ylamino)-pyrimidin-4-ylamino]-5-fluoro-N-methyl-benzamide]

IC50 [1, 5]: < 100 nM
IC50 [2, 6]: 1000 to 10000 nM
SMILES: CCN1C(=O)CCCc2ccc(Nc3ncc(Cl)c(Nc4c(C)cccc4C(=O)NC)n3)cc21 [Example 360, 2-[5-Chloro-2-(1-ethyl-2-oxo-2,3,4,5-tetrahydro-1H-benzo[b]azepin-8-ylamino)-pyrimidin-4-ylamino]-3,N-dimethyl-benzamide]

IC50 [1, 9]: > 10000 nM
IC50 [2, 10]: < 100 nM
SMILES: COCC(COC)N1CCc2cc(Nc3ncc(Cl)c(N[C@@H]4CCCC[C@H]4NS(C)(=O)=O)n3)c(OC)cc2CC1 [Example 816, N-((1R,2R)-2-{5-Chloro-2-[8-methoxy-3-(2-methoxy-1-methoxymethyl-ethyl)-2,3,4,5-tetrahydro-1H-benzo[d]azepin-7-ylamino]-pyrimidin-4-ylamino}-cyclohexyl)-methanesulfonamide]

IC50 [1, 3]: 100 to 1000 nM
IC50 [2, 4]: 100 to 1000 nM
SMILES: CNC(=O)c1ccc2c(c1Nc1nc(Nc3ccc4c(c3)NC(=O)CCC4(C)C)ncc1Cl)OCO2 [Example 1481, 4-[5-Chloro-2-(5,5-dimethyl-2-oxo-2,3,4,5-tetrahydro-1H-benzo[b]azepin-8-ylamino)-pyrimidin-4-ylamino]-benzo[1,3]dioxole-5-carboxylic acid methyl amide]

IC50 [1, 7]: > 10000 nM
IC50 [2, 8]: < 100 nM
SMILES: CNC(=O)c1ccc(Nc2nc(Nc3cc4c(cc3OC)CCN(Cc3ncco3)CC4)ncc2Cl)c(OC)c1 [Example 1182, 4-[5-Chloro-2-(8-methoxy-3-oxazol-2-ylmethyl-2,3,4,5-tetrahydro-1H-benzo[d]azepin-7-ylamino)-pyrimidin-4-ylamino]-3-methoxy-N-methyl-benzamide]

IC50 [1, 7]: 1000 to 10000 nM
IC50 [2, 8]: < 100 nM
SMILES: COc1cc2c(cc1Nc1ncc(Cl)c(Nc3ccccc3S(=O)(=O)N(C)C)n1)CCN(CC(=O)N1CCCC1)CC2 [Example 1157, 2-{5-Chloro-2-[8-methoxy-3-(2-oxo-2-pyrrolidin-1-yl-ethyl)-2,3,4,5-tetrahydro-1H-benzo[d]azepin-7-ylamino]-pyrimidin-4-ylamino}-N,N-dimethyl-benzenesulfonamide]

IC50 [1, 5]: 1000 to 10000 nM
IC50 [2, 6]: 100 to 1000 nM
SMILES: CN1CCNCc2cc(OCC(F)(F)F)c(Nc3ncc(Cl)c(N[C@@H]4CCCC[C@H]4NS(C)(=O)=O)n3)cc21 [Example 497, N-((1R,2R)-2-{5-Chloro-2-[1-methyl-7-(2,2,2-trifluoro-ethoxy)-2,3,4,5-tetrahydro-1H-benzo[e][1,4]diazepin-8-ylamino]-pyrimidin-4-ylamino}-cyclohexyl)-methanesulfonamide]

IC50 [1, 9]: 100 to 1000 nM
IC50 [2, 10]: < 100 nM
SMILES: Cn1cnc2c(Nc3nc(Nc4ccc5c(c4)C(C)(C)CCC(=O)N5)ncc3Cl)cccc21 [Example 1005, 7-[5-Chloro-4-(1-methyl-1H-benzoimidazol-4-ylamino)-pyrimidin-2-ylamino]-5,5-dimethyl-1,3,4,5-tetrahydro-benzo[b]azepin-2-one]

From patent US8148391B2 (Cephalon, Inc., priority 2006, dated 2012)
